The record followed here is PubChem BioAssay (NCI).

Some test systems named below: U251 CNS; SN12C renal; HCT-116 colon; CAKI-1 renal; LOX IMVI melanoma; TK-10 renal; SK-MEL-28 melanoma; NCI/ADR-RES ovarian; SR leukemia; SNB-75 CNS.
What all share (assay): NCI anticancer screen, dose series, 48 h

The structures appear in SMILES notation.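 Protocol summary: plate cells (96-well), add compound at 5 concentrations, incubate 48 h, interpolate endpoints linearly. GI50: concentration for 50% inhibition of growth. TGI: concentration producing complete growth inhibition.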

For the molecule `Cc1sc(Cc2ccccc2)nc1-c1ccc(N)cc1`, the TGI in the assay with U251 CNS is 74.7 µM; with SN12C renal, 40.2 µM; with HCT-116 colon, 40.7 µM; in the assay with CAKI-1 renal it was 83.8 µM; in the assay on LOX IMVI melanoma it was 29.8 µM; in the assay with TK-10 renal it was over 100 µM. Further, the TGI with SK-MEL-28 melanoma was 61.4 µM; in the assay with NCI/ADR-RES ovarian it was over 100 µM.

`CCOC(=O)/C(Cl)=C(\C)Nc1nc2c(ccc3ccccc32)s1`: the TGI is over 100 µM in the assay on U251 CNS; over 100 µM in the assay with SN12C renal; over 100 µM in the assay with HCT-116 colon; over 100 µM in the assay on CAKI-1 renal; over 100 µM in the assay on TK-10 renal; 77.1 µM in the assay on SR leukemia. For the same molecule, the TGI in the assay on SK-MEL-28 melanoma, with SNB-75 CNS and in the assay with NCI/ADR-RES ovarian was over 100 µM each time.

`O=c1oc2ccccc2c(Nc2ccc3c(c2)S(=O)(=O)c2ccccc2O3)c1[N+](=O)[O-]`: the TGI in the assay on U251 CNS was 42.1 µM; with SN12C renal it was 92.9 µM; in the assay with HCT-116 colon, 65 µM; with CAKI-1 renal, 51.3 µM; in the assay on LOX IMVI melanoma, over 100 µM; in the assay on TK-10 renal, 62.6 µM. Further, the TGI in the assay on SR leukemia was 72.6 µM; in the assay with SK-MEL-28 melanoma, 51.9 µM; in the assay with SNB-75 CNS, 52.4 µM; in the assay with NCI/ADR-RES ovarian, over 100 µM.

As to `Cc1cc(NCc2cc(Nc3ccnc4cc(Cl)ccc34)ccc2F)nc(N2CCCC2)n1`, the GI50 is 1.73 µM in the assay with U251 CNS, 1.47 µM with CAKI-1 renal, 1.94 µM with TK-10 renal and 0.265 µM with SR leukemia. The TGI in the assay on U251 CNS is 3.32 µM; in the assay with CAKI-1 renal, 2.98 µM; with TK-10 renal, 3.61 µM; in the assay on SR leukemia, 1.12 µM.

Regarding `NC(N)=N/N=C/c1c(-c2ccccc2)nc2n1ccc1nc(-c3ccccc3)c(/C=N/N=C(N)N)n12`, the TGI in the assay on U251 CNS, in the assay on SN12C renal, in the assay on HCT-116 colon, in the assay with CAKI-1 renal, with LOX IMVI melanoma and with TK-10 renal was over 100 µM each time. Further, the TGI in the assay with SK-MEL-28 melanoma, in the assay with SNB-75 CNS and in the assay with NCI/ADR-RES ovarian was over 100 µM each time.

For `C[C@@H]1CC[C@H]2C(COCCOCC3=C(C(F)(F)F)O[C@@H]4O[C@@]5(C)CC[C@H]6[C@H](C)CC[C@@H]3[C@@]46OO5)=C(C(F)(F)F)O[C@@H]3O[C@@]4(C)CC[C@@H]1[C@]32OO4`, the GI50 in the assay on U251 CNS is under 0.01 µM; in the assay on SN12C renal it was under 0.0448 µM; with HCT-116 colon it was 0.0243 µM; with CAKI-1 renal, 0.304 µM; in the assay on LOX IMVI melanoma it was 0.0641 µM; in the assay on TK-10 renal, 0.0557 µM. Moreover, the GI50 with SR leukemia is 0.0116 µM; with SK-MEL-28 melanoma it was over 7.2 µM; in the assay on SNB-75 CNS it was over 4.64 µM; with NCI/ADR-RES ovarian, 5.57 µM. Moreover, the TGI is 0.178 µM with U251 CNS; over 100 µM in the assay on SN12C renal; over 100 µM with HCT-116 colon; over 12.9 µM with CAKI-1 renal; over 100 µM in the assay on TK-10 renal; over 100 µM with SR leukemia. Further, the TGI is over 55.3 µM in the assay on SK-MEL-28 melanoma, over 100 µM in the assay on SNB-75 CNS and over 100 µM with NCI/ADR-RES ovarian.

With `CC1=NN(c2ccccc2)C(=O)/C1=C/c1ccc(O)cc1`, the TGI with U251 CNS, in the assay with SN12C renal, with HCT-116 colon, in the assay with CAKI-1 renal, in the assay on LOX IMVI melanoma and in the assay on TK-10 renal was over 100 µM throughout. Besides, the TGI in the assay with SR leukemia, in the assay with SK-MEL-28 melanoma and in the assay with NCI/ADR-RES ovarian was over 100 µM each time.

As for `CC1=C2C(=O)c3ccccc3C(=O)[C@H]2[C@H]2CCO[C@H]2O1`, the TGI in the assay with U251 CNS is 59.3 µM; in the assay on SN12C renal, 40.4 µM; in the assay on HCT-116 colon, 79 µM; in the assay on CAKI-1 renal, 46 µM; with LOX IMVI melanoma, 58.4 µM; with TK-10 renal, 67 µM. Further, the TGI in the assay on SR leukemia was over 100 µM; in the assay on SK-MEL-28 melanoma it was 63.1 µM; in the assay with SNB-75 CNS it was 43 µM; in the assay on NCI/ADR-RES ovarian, 67 µM.

For the molecule `COc1ccc(-c2c3c(nc4nc(SCCc5ccccc5)nc(N)c24)CCCC3)cc1OC`, the TGI in the assay with U251 CNS, with SN12C renal, in the assay with HCT-116 colon, in the assay with CAKI-1 renal, in the assay with LOX IMVI melanoma and in the assay with TK-10 renal was over 100 µM throughout. In addition, the TGI with SR leukemia, in the assay with SK-MEL-28 melanoma, in the assay on SNB-75 CNS and in the assay with NCI/ADR-RES ovarian was over 100 µM each time.

Regarding `O=S(=O)(Sc1ccc(Cl)cc1)c1ccc(Cl)cc1`, the TGI was found to be 22.3 µM in the assay with U251 CNS; 25.4 µM with SN12C renal; 28.6 µM in the assay on HCT-116 colon; 40.5 µM in the assay on CAKI-1 renal; 24.8 µM in the assay on LOX IMVI melanoma; 61.4 µM with TK-10 renal. Further, the TGI in the assay on SR leukemia was 45 µM; with SK-MEL-28 melanoma, 31.1 µM; in the assay with SNB-75 CNS, 40.5 µM.

For the molecule `CN1CCCCC1CCN1CCCCC1` (stereo not drawn), the TGI in the assay on U251 CNS, in the assay with SN12C renal, in the assay with HCT-116 colon, in the assay with CAKI-1 renal, with LOX IMVI melanoma and in the assay with TK-10 renal was over 100 µM throughout. Also, the TGI in the assay with SK-MEL-28 melanoma, with SNB-75 CNS and in the assay with NCI/ADR-RES ovarian was over 100 µM in each case.

Consider `CCCCCCNC(=O)c1cnc(Cl)cn1`, for which the TGI in the assay with U251 CNS was 23.6 µM; in the assay with SN12C renal, 26 µM; in the assay with HCT-116 colon it was 30.7 µM; with CAKI-1 renal, 2.39 µM; in the assay with LOX IMVI melanoma, 27.7 µM; in the assay with TK-10 renal, over 100 µM. The TGI with SR leukemia stood at 16.6 µM; in the assay with SK-MEL-28 melanoma, 74.9 µM; with SNB-75 CNS it was 49.1 µM; in the assay on NCI/ADR-RES ovarian, 34.2 µM.

Regarding `CN(C)CCCNc1ccc2ncn3c4ccccc4c(=O)c1c23`, the TGI in the assay with U251 CNS was over 100 µM; in the assay on SN12C renal, over 100 µM; in the assay on HCT-116 colon it was 15.1 µM; with LOX IMVI melanoma, 13.7 µM; in the assay on TK-10 renal it was 69.7 µM; in the assay on SR leukemia, 17.7 µM. Also, the values for the TGI with SK-MEL-28 melanoma and with SNB-75 CNS were over 100 µM and 92.2 µM, respectively.
